SMILES strings stand for the structures.

Assay [1] deals with T1, human alpha-2A receptor (Homo sapiens, UniProt P08913).
T1 construct: expressed in transfected cells; host or cells: C6 cells (rat glioma, by own knowledge) continuously expressing the human receptor; membranes
T1 sequence (P08913 1-465): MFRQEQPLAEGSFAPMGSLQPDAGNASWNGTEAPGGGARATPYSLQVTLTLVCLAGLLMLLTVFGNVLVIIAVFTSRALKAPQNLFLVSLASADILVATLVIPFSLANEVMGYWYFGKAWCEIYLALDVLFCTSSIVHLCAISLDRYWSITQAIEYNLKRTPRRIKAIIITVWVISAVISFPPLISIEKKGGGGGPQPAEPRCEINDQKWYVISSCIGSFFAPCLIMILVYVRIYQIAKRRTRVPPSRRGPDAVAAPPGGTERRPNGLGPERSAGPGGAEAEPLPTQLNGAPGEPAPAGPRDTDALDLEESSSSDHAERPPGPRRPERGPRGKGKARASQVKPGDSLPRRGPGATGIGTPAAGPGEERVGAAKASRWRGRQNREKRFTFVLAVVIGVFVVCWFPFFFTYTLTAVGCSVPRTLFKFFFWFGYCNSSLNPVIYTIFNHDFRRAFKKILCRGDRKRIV
In words: Bonds with alpha-2 adrenergic receptors ([3H]RX 821002 binding, C6 cell membranes). As to conditions: 2 nM [3H]RX 821002, C6 cell membranes expressing human alpha-2A receptor, 30 min at 25° C.; read-out: Affinity (pKi) Alpha-2A (converted). How it is done: Bonds with Alpha-2 Adrenergic Receptors
The C6 cell membranes continuously expressing the human alpha-2A receptor are prepared in Tris-HCl (pH=7.6). The bond tests are conducted with 2 nM [3H]RX 821002. The incubation medium consists of 0.4 ml of cell membranes (10 μg of proteins), 0.05 ml of radioligand and 0.05 ml of test product or phentolamine (10 μM) to determine the non-specific bond. The reaction is stopped after 30 minutes of incubation at 25° C. by adding 3 ml of Tris-HCl, 50 mM (pH=7.6), cold, followed by filtration on Whatman filters, GF/B using a Brandel. The Ki values are calculated according to the equation Ki=IC50/(1+C/Kd) where C is the concentration and Kd the dissociation constant, pKi=−log Ki. Under these conditions, the compounds according to the invention appear to have a strong affinity for human alpha-2A adrenergic subtype receptors.

Assay [2] addresses T2, human alpha-2A adrenergic receptors (Homo sapiens, UniProt P08913).
T2 construct: expressed in transfected cells; host or cells: membrane preparations
T2 sequence (P08913 1-465): T1 sequence (P08913 1-465)
In words: Measurement of alpha-2 adrenergic receptor activation (GTPγS response on membrane preparations). The assay is classed as biochemical. As to conditions: expressed with reference to (−)-adrenaline (maximum stimulation = +100), read-out: Intrinsic activity % stimulated. The protocol: Measurement of Alpha-2 Adrenergic Receptor Activation
The GTPγS responses are produced on membrane preparations in 20 mM HEPES (pH=7.4) with 30 [mu]M of GDP, 100 mM of NaCl, 3 mM of MgCl2 and 0.2 mM of ascorbic acid. The maximum GTPγS stimulation is determined in the presence of […] of (−)-adrenaline and calculated with respect to the basal GTPγS response. The results are expressed with reference to adrenaline or RX 811059. Under these conditions, the compounds according to the invention are distinguished from the majority of the compounds according to the prior art in that they behave more like reverse agonists on human alpha-2A adrenergic receptors (see table above).

Assay [3] has as its system scopolamine-induced memory deficiency. In words: Scopolamine-induced memory deficiency test (passive avoidance). The assay is classed as in vivo. As to conditions: rats. An excerpt: Scopolamine-Induced Memory Deficiency Test. Scopolamine has amnesiac properties in animals and humans. In this way, its administration to healthy humans induces certain symptoms similar to those observed in Alzheimer's disease. Therefore, the scopolamine-induced memory deficiency is used as an experimental pharmacological model of the memory disorders observed in the course of this condition. Scopolamine reduces acquisition, memorisation and recall capacities in a passive avoidance test in rats. It consists of measuring the hesitancy, after learning, shown by an animal to enter a dark compartment in which it receives a low-intensity electric shock. The administration of scopolamine does away with this hesitancy and the compounds studied inhibit the effect of scopolamine. The experimental protocol used is described in Psychopharmacol. 1992, 106, 26-30.

Assay [4] deals with rats. In words: Morris water maze test (spatial memory, probe trial). The assay is classed as in vivo. As to conditions: for Effect on spatial memory processes (in words): i.p. after training sessions of days 1 and 2; for Increase in spatial memory performance: probe trial on day 3 after two training days. An excerpt:
Morris Water Maze—Basic Principles of the Test
In the animal test paradigm, rats are placed into a circular pool containing water and are required to find an escape platform just beneath the surface of the water and therefore invisible to the animal. The performances are dependent on the number of training days.
Morris Water Maze—Detailed Protocol
The water maze test was adapted from the original protocol of Morris (1981). The test apparatus consisted of a circular fibreglass tank (130 cm in diameter, 50 cm deep). The pool was filled to a height of 30 cm with water at room temperature (21-22° C.). The pool was divided into four virtual quadrants (Q1, Q2, Q3 and Q4) of equal surface area. A transparent escape platform made of Plexiglas (10 cm in diameter, 29 cm high) was placed in a fixed location in the tank, 1 cm below the water surface. […] Many extra-maze cues surrounded the maze and were available for the rats to use in locating the escape platform. On the training trials, the platform remained in a constant location in the centre of one quadrant (Q4) equidistant from the centre and the edge of the pool. Each rat received three trials/day for 1, 2, 3 or 4 days. Each training trial involved placing the rat into the pool facing the wall at one of the 3 quadrants Q1, Q2 and Q3. A different starting point was randomly used on each trial. The rats were allowed to swim freely until they found the escape platform. The latency to find the hidden platform was recorded and used as a measure of acquisition of the task. […] The intertrial interval was 20 sec during which the rat remained on the platform. Twenty hours after the last training trial, the platform was removed from the pool, the rats were allowed to swim for 60 sec in the pool and the time spent in the target quadrant Q4 (the quadrant in which the platform was during training) was recorded. The percent time spent in the previous training quadrant Q4 was used as an index of memory. The higher the percentage, the better the memory was considered to be (Yavich L., Sirviö J., Haapalinna A., Puumala T., Koivisto E., Heinonen E., Riekkinen P. Jr. (1996) The systemic administration of tacrine or selegeline facilitate spatial learning in aged Fisher 344 rats. J Neural Transm 103: 619-626).
Pharmacological Treatment and Statistical Analysis
Rats received two training days and were tested in a probe trial, without platform, on the third day. […] Results were expressed as the mean±standard error of the mean (SEM) of performance (latency to find the platform and percentage time spent in target quadrant) and were analysed by one-way analysis of variance, with drug treatment as the factor, followed by a 2-tailed Student t-test (GB-STAT, Friedman P. (1991) GB-STAT: computer aided statistics & graphics, Ver 3.0. Dynamic Microsystems, Inc., Silver Spring). In the probe trial, without platform, results were also compared to chance performance (25%) by a 1-sample Student t-test (GB-STAT, Friedman, 1991). Results obtained with compounds I-1 (Example 4), (−)-1-1 (Example 6), (+)-1-1 (Example 5) and 1-2 (Example 7): […]

As to `C[C@@H]1[C@H]2c3ccccc3C3(CC3)[C@@]12c1c[nH]cn1` (relative stereo) [Compound 1-2, 4-(1-exo-methyl-6-spiro-1′-cyclopropane-1a,6-dihydro-1H-cyclopropa[a]inden-6a-yl)-1H-imidazole], the Ki in assay [1] is 7.94 nM. Besides, the Emax in assay [2] was found to be 7%. In addition, the “Scopolamine memory deficiency % aplitude of effect” value in assay [3] (dose 0.63 mg/kg i.p.) is “+201%”. Further, the “Effect on spatial memory processes (in words)” value (“Effect … (in words)” for short) in assay [4] is “promnesic effect”. Besides, the “Increase in spatial memory performance” value in assay [4] (2.54 mg/kg i.p. immediately after training sessions) was 42%.

As to `c1ccc2c(c1)C1CC1(c1c[nH]cn1)C21CC1` (single isomer, unassigned; (+)) [(+)-1-1, (+)-4-(6-spiro-1′-cyclopropane-1a,6-dihydro-1H-cyclopropa[a]inden-6a-yl)-1H-imidazole], the “Effect … (in words)” value in assay [4] is on record as “promnesic effect”. Moreover, the “Increase in spatial memory performance” value in assay [4] (0.16 mg/kg i.p. immediately after training sessions) is on record as 17%.

With `c1ccc2c(c1)C1CC1(c1cnc[nH]1)C21CC1` (single isomer, unassigned; (-)) [(-)-1-1, (−)-4-(6-spiro-1′-cyclopropane-1a,6-dihydro-1H-cyclopropa[a]inden-6a-yl)-1H-imidazole], the Ki in assay [1] is 2.51 nM. Moreover, in assay [2], the Emax came out at 37%. Also, in assay [3] (dose 2.5 mg/kg i.p.), the “Scopolamine memory deficiency % aplitude of effect” value is listed as “+138%”. For the same molecule, the “Effect … (in words)” value in assay [4] is given as “promnesic effect”. The “Increase in spatial memory performance” value in assay [4] (0.63 and 2.5 mg/kg i.p. immediately after training sessions) is “up to 48%”.

For the molecule `c1ccc2c(c1)C1CC1(c1cnc[nH]1)C21CC1` (stereo not drawn) [Compound 1-1, 4-(6-spiro-1′-cyclopropane-1a,6-dihydro-1H-cyclopropa[a]inden-6a-yl)-1H-imidazole], the Ki in assay [1] is 0.316 nM. Besides, the Emax in assay [2] was found to be 14%. Moreover, the “Scopolamine memory deficiency % aplitude of effect” value in assay [3] (dose 2.5 mg/kg i.p.) is “+122%”. In assay [4], the “Effect … (in words)” value is on record as “promnesic effect”. Further, the “Increase in spatial memory performance” value in assay [4] (2.5 mg/kg i.p. immediately after training sessions) is 46%.

For `Fc1ccc2c(c1)C1(CC1)C1(c3c[nH]cn3)CC21` (stereo not drawn) [Compound 1-5, 4-(4-fluoro-6-spiro-t-cyclopropane-1a,6-dihydro-1H-cyclopropa[a]inden-6a-yl)-1H-imidazole], the Ki in assay [1] is 0.316 nM. For the same molecule, the Emax in assay [2] is -10%. In addition, the “Scopolamine memory deficiency % aplitude of effect” value in assay [3] (dose 0.63 mg/kg i.p.) was “+241%”.

In the case of `COc1cc2c(cc1OC)C(=O)C(CC1CCN(Cc3ccccc3)CC1)C2` (stereo not drawn) [Donepezil, reference compound], in assay [3] (dose 0.16 mg/kg i.p.), the “Scopolamine memory deficiency % aplitude of effect” value was “+67%”.

(Values after US8188126B2, “Imidazolic compounds and use thereof as alpha-2 adrenergic receptors” (Pierre Fabre Medicament, priority 2002, dated 2012).)
